Measurements as given in US6608082B1, “Treatment of erectile dysfunction using isoquinoline compound melanocortin receptor ligands” (Lion Bioscience AG, priority 1998, dated 2003).

Biological target: T1, MCR-1 (Homo sapiens, UniProt Q01726)
T1 construct: expressed in transfected cells; host or cells: HEK 293
Experiment: Melanocortin receptor binding assay, competition with 125I-HP 467, HEK 293 cells expressing hMCR-1
Details: 10 μM isoquinoline compound; for % Disp. of 125I-HP 467 (first of duplicate): HEK 293 cells expressing MCR-1, duplicate 1; for % Disp. of 125I-HP 467 (second of duplicate): HEK 293 cells expressing MCR-1, duplicate 2
Procedure, shortened: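 Intact-cell competition binding, 2.5 hr at 37 °C, in PBS/10% calf serum/1 mM CaCl2; hMCR-4 cells at 4×10^3 per tube, hMCR-1 cells at 2×10^4 per tube. Filtration on BSA/CaCl2-soaked GF/B, cold 50 mM Tris pH 7.4 washes, scintillation count.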

T1 sequence (Q01726 whole entry): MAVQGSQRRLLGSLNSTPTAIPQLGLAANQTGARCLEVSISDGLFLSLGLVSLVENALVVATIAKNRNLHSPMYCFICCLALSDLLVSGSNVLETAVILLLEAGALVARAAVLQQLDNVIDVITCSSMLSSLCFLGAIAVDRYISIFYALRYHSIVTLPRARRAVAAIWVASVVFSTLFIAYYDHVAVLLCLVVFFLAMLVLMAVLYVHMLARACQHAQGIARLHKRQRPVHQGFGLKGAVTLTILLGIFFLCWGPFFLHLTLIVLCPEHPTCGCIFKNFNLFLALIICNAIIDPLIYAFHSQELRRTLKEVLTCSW

Row | % Disp. of 125I-HP 467 (first of duplicate) [%] | % Disp. of 125I-HP 467 (second of duplicate) [%] | SMILES
1 | 67 | 59.3 | CCn1c2ccccc2c2cc(C3C(CNC4CCCCC4)c4ccccc4CN3CC(CN)NC)ccc21 (stereo not shown) [TRG 2405-173]
2 | 68.5 | 68.8 | CNC(CN)CN1Cc2ccccc2C(CNC2CCCCC2)C1c1ccc[nH]1 (stereo not shown) [TRG 2405-175]
3 | 39 | 30.7 | CNC(CN)CN1Cc2ccccc2C(CNC2CCCCC2)C1c1ccc(S(C)(=O)=O)cc1 (stereo not shown) [TRG 2405-177]
4 | 25 | 22.1 | CNC(CN)CN1Cc2ccccc2C(CNC2CCCCC2)C1c1ccc(OC)c(S(=O)(=O)O)c1 (stereo not shown) [TRG 2405-178]
5 | 61.1 | 56.8 | CNC(CN)CN1Cc2ccccc2C(CNC2CCCCC2)C1c1ccc(Br)o1 (stereo not shown) [TRG 2405-179]
6 | 72 | 64.6 | CNC(CN)CN1Cc2ccccc2C(CNC2CCCCC2)C1c1nccs1 (stereo not shown) [TRG 2405-180]
7 | 57.3 | 64.4 | CNC(CN)CCCCN1Cc2ccccc2C(CNC2CCCCC2)C1c1ccccc1 (stereo not shown) [TRG 2405-181]
8 | 55.8 | 46 | CNC(CN)CCCCN1Cc2ccccc2C(CNC2CCCCC2)C1c1cccn1C (stereo not shown) [TRG 2405-184]
9 | 68.1 | 60.4 | CN[C@H](CN)CCCCN1Cc2ccccc2C(CNC2CCCCC2)C1c1cccc2ccccc12 (stereo partly shown) [TRG 2405-185]
10 | 62.7 | 52.7 | CNC(CN)CCCCN1Cc2ccccc2C(CNC2CCCCC2)C1c1ccc(F)c(F)c1F (stereo not shown) [TRG 2405-186]
11 | 66.9 | 60.1 | CNC(CN)CCCCN1Cc2ccccc2C(CNC2CCCCC2)C1c1cccc2c1OCO2 (stereo not shown) [TRG 2405-188]
12 | 45 | 54.8 | CNC(CN)CCCCN1Cc2ccccc2C(CNC2CCCCC2)C1c1cccc(F)c1F (stereo not shown) [TRG 2405-189]
13 | 41.2 | 47.3 | CNC(CN)CCCCN1Cc2ccccc2C(CNC2CCCCC2)C1c1c(F)cccc1F (stereo not shown) [TRG 2405-191]
14 | 73.8 | 50.9 | CNC(CN)CCCCN1Cc2ccccc2C(CNC2CCCCC2)C1c1ccccc1Br (stereo not shown) [TRG 2405-192]
15 | 50.7 | 51.4 | CNC(CN)CCCCN1Cc2ccccc2C(CNC2CCCCC2)C1c1c(F)cccc1Cl (stereo not shown) [TRG 2405-194]
16 | 44.7 | 35.7 | CNC(CN)CCCCN1Cc2ccccc2C(CNC2CCCCC2)C1c1ccccc1CN (stereo not shown) [TRG 2405-195]
17 | 69.1 | 64.6 | CNC(CN)CCCCN1Cc2ccccc2C(CNC2CCCCC2)C1c1ccccc1F (stereo not shown) [TRG 2405-196]
18 | 41.9 | 41.3 | CNC(CN)CCCCN1Cc2ccccc2C(CNC2CCCCC2)C1c1ccco1 (stereo not shown) [TRG 2405-197]
19 | 65.4 | 26.4 | CNC(CN)CCCCN1Cc2ccccc2C(CNC2CCCCC2)C1c1ncc[nH]1 (stereo not shown) [TRG 2405-198]
20 | 71.5 | 71.4 | CNC(CN)CCCCN1Cc2ccccc2C(CNC2CCCCC2)C1c1ccccc1OC (stereo not shown) [TRG 2405-199]
21 | 83.6 | 81 | CNC(CN)CCCCN1Cc2ccccc2C(CNC2CCCCC2)C1c1ccc2ccccc2c1 (stereo not shown) [TRG 2405-200]
22 | 61.1 | 43.4 | CNC(CN)CCCCN1Cc2ccccc2C(CNC2CCCCC2)C1c1ccccn1 (stereo not shown) [TRG 2405-201]
23 | 63 | 53.2 | CNC(CN)CCCCN1Cc2ccccc2C(CNC2CCCCC2)C1c1ccc2ccccc2n1 (stereo not shown) [TRG 2405-202]
24 | 58.1 | 49 | CNC(CN)CCCCN1Cc2ccccc2C(CNC2CCCCC2)C1c1cccs1 (stereo not shown) [TRG 2405-203]
25 | 75 | 69 | CNC(CN)CCCCN1Cc2ccccc2C(CNC2CCCCC2)C1c1ccc(Cl)c(Cl)c1 (stereo not shown) [TRG 2405-206]
26 | 79.5 | 67.5 | CNC(CN)CCCCN1Cc2ccccc2C(CNC2CCCCC2)C1c1cc(C(F)(F)F)cc(C(F)(F)F)c1 (stereo not shown) [TRG 2405-208]
27 | 76.5 | 69.6 | CNC(CN)CCCCN1Cc2ccccc2C(CNC2CCCCC2)C1c1cc(Cl)cc(Cl)c1 (stereo not shown) [TRG 2405-210]

Row | % Disp. of 125I-HP 467 (first of duplicate) [%] | % Disp. of 125I-HP 467 (second of duplicate) [%] | SMILES
28 | 69.9 | 69 | CNC(CN)CCCCN1Cc2ccccc2C(CNC2CCCCC2)C1c1cc(OC)cc(OC)c1 (stereo not shown) [TRG 2405-211]
29 | 54.8 | 45.8 | CNC(CN)CCCCN1Cc2ccccc2C(CNC2CCCCC2)C1c1cc(C)c(O)c(C)c1 (stereo not shown) [TRG 2405-212]
30 | 87.5 | 84.9 | CNC(CN)CCCCN1Cc2ccccc2C(CNC2CCCCC2)C1c1cccc(Oc2ccc(OC)cc2)c1 (stereo not shown) [TRG 2405-214]
31 | 75.9 | 70.8 | CNC(CN)CCCCN1Cc2ccccc2C(CNC2CCCCC2)C1c1cccc(C(F)(F)F)c1 (stereo not shown) [TRG 2405-215]
32 | 78.9 | 67.9 | CNC(CN)CCCCN1Cc2ccccc2C(CNC2CCCCC2)C1c1ccc(F)c(Br)c1 (stereo not shown) [TRG 2405-216]
33 | 74.5 | 68.8 | CNC(CN)CCCCN1Cc2ccccc2C(CNC2CCCCC2)C1c1cccc(Br)c1 (stereo not shown) [TRG 2405-217]
34 | 43.5 | 42.9 | CNC(CN)CCCCN1Cc2ccccc2C(CNC2CCCCC2)C1c1cccc(CN)c1 (stereo not shown) [TRG 2405-219]
35 | 67.3 | 60.6 | CNC(CN)CCCCN1Cc2ccccc2C(CNC2CCCCC2)C1c1ccc(OC)c(F)c1 (stereo not shown) [TRG 2405-220]
36 | 65.2 | 62.7 | CNC(CN)CCCCN1Cc2ccccc2C(CNC2CCCCC2)C1c1cccc(F)c1 (stereo not shown) [TRG 2405-221]
37 | 34.3 | 39.3 | CNC(CN)CCCCN1Cc2ccccc2C(CNC2CCCCC2)C1c1ccoc1 (stereo not shown) [TRG 2405-222]
38 | 33.6 | 21.2 | CNC(CN)CCCCN1Cc2ccccc2C(CNC2CCCCC2)C1c1cccc(O)c1 (stereo not shown) [TRG 2405-223]
39 | 69.8 | 69.4 | CNC(CN)CCCCN1Cc2ccccc2C(CNC2CCCCC2)C1c1cccc(OC)c1 (stereo not shown) [TRG 2405-225]
40 | 78.2 | 74.6 | CNC(CN)CCCCN1Cc2ccccc2C(CNC2CCCCC2)C1c1cccc(C)c1 (stereo not shown) [TRG 2405-227]
41 | 58.6 | 48.8 | CNC(CN)CCCCN1Cc2ccccc2C(CNC2CCCCC2)C1c1cccc([N+](=O)[O-])c1 (stereo not shown) [TRG 2405-229]
42 | 89.2 | 84.2 | CNC(CN)CCCCN1Cc2ccccc2C(CNC2CCCCC2)C1c1cccc(Oc2ccccc2)c1 (stereo not shown) [TRG 2405-230]
43 | 25 | 18.9 | CNC(CN)CCCCN1Cc2ccccc2C(CNC2CCCCC2)C1c1cccnc1 (stereo not shown) [TRG 2405-231]
44 | 36.1 | 34.2 | CNC(CN)CCCCN1Cc2ccccc2C(CNC2CCCCC2)C1c1cnc2ccccc2c1 (stereo not shown) [TRG 2405-232]
45 | 52.9 | 37.7 | CNC(CN)CCCCN1Cc2ccccc2C(CNC2CCCCC2)C1c1ccc(OCCCN(C)C)cc1 (stereo not shown) [TRG 2405-234]
46 | 62.2 | 47.8 | CNC(CN)CCCCN1Cc2ccccc2C(CNC2CCCCC2)C1c1ccc(SC)cc1 (stereo not shown) [TRG 2405-237]
47 | 69.6 | 66.5 | CNC(CN)CCCCN1Cc2ccccc2C(CNC2CCCCC2)C1c1ccc(OC)cc1 (stereo not shown) [TRG 2405-240]
48 | 29.7 | 22.5 | CNC(CN)CCCCN1Cc2ccccc2C(CNC2CCCCC2)C1c1ccc(CN)cc1 (stereo not shown) [TRG 2405-244]
49 | 56.6 | 56.8 | CNC(CN)CCCCN1Cc2ccccc2C(CNC2CCCCC2)C1c1ccc(F)cc1 (stereo not shown) [TRG 2405-245]
50 | 83 | 85.3 | CNC(CN)CCCCN1Cc2ccccc2C(CNC2CCCCC2)C1c1ccc(C(C)C)cc1 (stereo not shown) [TRG 2405-247]
51 | 82.3 | 83 | CNC(CN)CCCCN1Cc2ccccc2C(CNC2CCCCC2)C1c1ccc(C)cc1 (stereo not shown) [TRG 2405-249]
52 | 49.4 | 46.9 | CNC(CN)CCCCN1Cc2ccccc2C(CNC2CCCCC2)C1c1ccc([N+](=O)[O-])cc1 (stereo not shown) [TRG 2405-251]
53 | 24.9 | 29.1 | CNC(CN)CCCCN1Cc2ccccc2C(CNC2CCCCC2)C1c1ccncc1 (stereo not shown) [TRG 2405-254]
